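Dose response: 5 concentrations. Exposure: 48 h. Format: 96-well plates. Endpoint: linear interpolation; highest concentration if not reached. At the GI50, growth is halved.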 Calls of active or inactive are those of the source. Cut-off read from the data, not from the text of the source: active = GI50 up to about 1.1 µM and inactive = higher.
How the values were obtained:
Assay in all cases: growth of human tumour cells (NCI), 48 h
BT-549 = system: BT-549
HT-29 = system: HT-29
MOLT-4 = system: MOLT-4
OVCAR-5 = system: OVCAR-5
RXF 393 = system: RXF 393
EKVX = system: EKVX
COLO 205 = system: COLO 205
UO-31 = system: UO-31
SF-295 = system: SF-295
IGROV-1 = system: IGROV-1
Malme-3M = system: Malme-3M
U-251 = system: U-251
HCT-15 = system: HCT-15
PC-3 = system: PC-3
HL-60 = system: HL-60
NCI-H226 = system: NCI-H226
K562 = system: K562
MDA-MB-231 = system: MDA-MB-231
SNB-19 = system: SNB-19
MDA-N = system: MDA-N

For `NC(N)=NCCC[C@H](N)C(=O)NCC(=O)N[C@@H](CC(=O)O)c1ncc(NC(=O)C(F)(F)F)o1`, the GI50 (BT-549) was > 25 µM (inactive), the GI50 (HT-29) was > 25 µM (inactive) and the GI50 (MOLT-4) was > 25 µM (inactive). For the same compound, the GI50 (OVCAR-5) was > 25 µM (inactive), the GI50 (RXF 393) was > 25 µM (inactive) and the GI50 (EKVX) was > 25 µM (inactive). The GI50 (COLO 205) was > 25 µM (inactive), the GI50 (UO-31) was > 25 µM (inactive) and the GI50 (SF-295) was > 25 µM (inactive). For the same compound, the GI50 (IGROV-1) was > 25 µM (inactive), the GI50 (Malme-3M) was > 25 µM (inactive) and the GI50 (U-251) was > 25 µM (inactive). For the same compound, the GI50 (HCT-15) was > 25 µM, the GI50 (PC-3) was > 25 µM (inactive) and the GI50 (HL-60) was > 25 µM (inactive). The GI50 (NCI-H226) was > 25 µM (inactive) and the GI50 (K562) was > 25 µM (inactive).
In the case of `COc1cc(-c2c3c(cc4c2OCO4)[C@@H](Nc2ccc(-c4ccc(-c5ccc(N[C@@H]6c7cc8c(cc7C(c7cc(OC)c(O)c(OC)c7)[C@H]7C(=O)OC[C@H]67)OCO8)cc5)cc4)cc2)[C@H]2COC(=O)[C@@H]2C3)cc(OC)c1O` (stereo partly drawn), the GI50 (MDA-MB-231) is reported as 2.19 µM (inactive), the GI50 (BT-549) is reported as 2.84 µM (inactive) and the GI50 (HT-29) is reported as 2.31 µM (inactive). For the same compound, the GI50 (MOLT-4) was 3.1 µM (inactive), the GI50 (OVCAR-5) was 4.39 µM (inactive) and the GI50 (SNB-19) was 2.96 µM (inactive). For the same compound, the GI50 (EKVX) was 4.51 µM (inactive), the GI50 (COLO 205) was 1.7 µM (inactive) and the GI50 (UO-31) was 3.13 µM (inactive). For the same compound, the GI50 (SF-295) was 1.77 µM (inactive), the GI50 (IGROV-1) was 1.1 µM (active) and the GI50 (Malme-3M) was 1.87 µM (inactive). The GI50 (U-251) was 3.09 µM (inactive), the GI50 (HCT-15) was 1.73 µM and the GI50 (PC-3) was 2.04 µM (inactive). The GI50 (HL-60) was 2.4 µM (inactive) and the GI50 (NCI-H226) was 2.09 µM (inactive).
`C=CCCC1CCCCC/C1=N\N(C)C` (stereo not drawn) was tested, and the GI50 (MDA-MB-231) was > 100 µM (inactive), the GI50 (HT-29) was > 100 µM (inactive) and the GI50 (MOLT-4) was > 100 µM (inactive). The GI50 (OVCAR-5) was > 100 µM (inactive), the GI50 (SNB-19) was > 100 µM (inactive) and the GI50 (EKVX) was > 100 µM (inactive). The GI50 (COLO 205) was > 100 µM (inactive), the GI50 (UO-31) was > 100 µM (inactive) and the GI50 (SF-295) was > 100 µM (inactive). For the same compound, the GI50 (IGROV-1) was > 100 µM (inactive), the GI50 (MDA-N) was > 100 µM (inactive) and the GI50 (U-251) was > 100 µM (inactive). The GI50 (HCT-15) was > 100 µM, the GI50 (PC-3) was > 100 µM (inactive) and the GI50 (HL-60) was > 100 µM (inactive). For the same compound, the GI50 (NCI-H226) was > 100 µM (inactive) and the GI50 (K562) was > 100 µM (inactive).
For `O=C(NC1=C(Cl)C(=O)c2ccccc2C1=O)C(=O)C(C(=O)c1ccc2ccccc2c1)C1OC(=O)c2ccccc21` (stereo not drawn), the GI50 (BT-549) was 3.48 µM (inactive), the GI50 (HT-29) was 4.07 µM (inactive) and the GI50 (MOLT-4) was 2.06 µM (inactive). For the same compound, the GI50 (OVCAR-5) was 11.8 µM (inactive), the GI50 (RXF 393) was 4.49 µM (inactive) and the GI50 (SNB-19) was 6.03 µM (inactive). The GI50 (EKVX) was 12 µM (inactive), the GI50 (COLO 205) was 7.4 µM (inactive) and the GI50 (UO-31) was 13.2 µM (inactive). For the same compound, the GI50 (SF-295) was 3.3 µM (inactive), the GI50 (IGROV-1) was 7.73 µM (inactive) and the GI50 (Malme-3M) was 1.7 µM (inactive). The GI50 (U-251) was 4.38 µM (inactive), the GI50 (HCT-15) was 3.77 µM and the GI50 (HL-60) was 2.49 µM (inactive). The GI50 (NCI-H226) was 0.986 µM (active) and the GI50 (K562) was 3.55 µM (inactive).
With `CSC1=N/C(=C\c2cccs2)C(=O)N1CN1CCCCC1` the GI50 (MDA-MB-231) was > 100 µM (inactive), the GI50 (HT-29) was 25.1 µM (inactive) and the GI50 (MOLT-4) was 64.9 µM (inactive). For the same compound, the GI50 (OVCAR-5) was > 100 µM (inactive), the GI50 (EKVX) was 24 µM (inactive) and the GI50 (COLO 205) was 70.6 µM (inactive). For the same compound, the GI50 (UO-31) was 23.3 µM (inactive), the GI50 (SF-295) was > 100 µM (inactive) and the GI50 (IGROV-1) was 33.5 µM (inactive). For the same compound, the GI50 (MDA-N) was > 100 µM (inactive), the GI50 (Malme-3M) was 28.3 µM (inactive) and the GI50 (U-251) was 79.6 µM (inactive). For the same compound, the GI50 (HCT-15) was 37.2 µM, the GI50 (PC-3) was > 100 µM (inactive) and the GI50 (NCI-H226) was 57.8 µM (inactive). For the same compound, the GI50 (K562) was 27.1 µM (inactive).
With `N#Cc1cc2c(cc1Cl)Sc1nccn1S2(=O)=O` the GI50 (MDA-MB-231) was 3.59 µM (inactive), the GI50 (BT-549) was 3.32 µM (inactive) and the GI50 (HT-29) was 0.977 µM (active). For the same compound, the GI50 (MOLT-4) was 0.667 µM (active), the GI50 (OVCAR-5) was 14.4 µM (inactive) and the GI50 (RXF 393) was 4.61 µM (inactive). The GI50 (SNB-19) was 8.2 µM (inactive), the GI50 (EKVX) was 14.5 µM (inactive) and the GI50 (COLO 205) was 12.4 µM (inactive). For the same compound, the GI50 (UO-31) was 5.52 µM (inactive), the GI50 (SF-295) was 4.31 µM (inactive) and the GI50 (IGROV-1) was 6.38 µM (inactive). For the same compound, the GI50 (Malme-3M) was 6.79 µM (inactive), the GI50 (U-251) was 1.6 µM (inactive) and the GI50 (HCT-15) was 1.25 µM. For the same compound, the GI50 (PC-3) was 4 µM (inactive), the GI50 (HL-60) was 3.08 µM (inactive) and the GI50 (NCI-H226) was 5.89 µM (inactive). The GI50 (K562) was 2.69 µM (inactive).
`C[C@@]1(Br)C[C@@](C)(Cl)[C@@H](Br)CC1/C=C/Cl` (stereo partly drawn) was tested, and the GI50 (MDA-MB-231) was 20.1 µM (inactive), the GI50 (BT-549) was 19.1 µM (inactive) and the GI50 (HT-29) was 16.1 µM (inactive). The GI50 (MOLT-4) was 13.3 µM (inactive), the GI50 (OVCAR-5) was 15.1 µM (inactive) and the GI50 (SNB-19) was 18.6 µM (inactive). For the same compound, the GI50 (COLO 205) was 15.6 µM (inactive), the GI50 (UO-31) was 18.5 µM (inactive) and the GI50 (SF-295) was 14.4 µM (inactive). For the same compound, the GI50 (IGROV-1) was 8.15 µM (inactive), the GI50 (MDA-N) was 15.8 µM (inactive) and the GI50 (Malme-3M) was < 0.01 µM (active). The GI50 (U-251) was 19.3 µM (inactive), the GI50 (HCT-15) was 27 µM and the GI50 (PC-3) was 15.9 µM (inactive). For the same compound, the GI50 (NCI-H226) was 10.8 µM (inactive) and the GI50 (K562) was 15.3 µM (inactive).
With `N#CC(C(=O)/C(=N/Nc1nc(S)nn1N)C(C#N)c1ccccc1)c1ccccc1` (stereo not drawn) the GI50 (MDA-MB-231) was > 100 µM (inactive), the GI50 (BT-549) was > 100 µM (inactive) and the GI50 (HT-29) was > 100 µM (inactive). For the same compound, the GI50 (OVCAR-5) was > 100 µM (inactive), the GI50 (RXF 393) was > 100 µM (inactive) and the GI50 (SNB-19) was > 100 µM (inactive). The GI50 (EKVX) was > 100 µM (inactive), the GI50 (COLO 205) was > 100 µM (inactive) and the GI50 (UO-31) was > 100 µM (inactive). The GI50 (SF-295) was > 100 µM (inactive), the GI50 (IGROV-1) was > 100 µM (inactive) and the GI50 (Malme-3M) was > 100 µM (inactive). The GI50 (U-251) was > 100 µM (inactive), the GI50 (HCT-15) was > 100 µM and the GI50 (PC-3) was > 100 µM (inactive). For the same compound, the GI50 (HL-60) was > 100 µM (inactive), the GI50 (NCI-H226) was > 100 µM (inactive) and the GI50 (K562) was > 100 µM (inactive).

Reference: ChEMBL document CHEMBL1201862, “PubChem BioAssay data set” (2004)
